Reference: US11401271B2, “Fused heterocyclic compound, pyrazole-ring-containing fused heterocyclic compound, agricultural composition containing thereof, and method of using the composition” (SOUTH CHINA AGRICULTURAL UNIVERSITY, priority 2017, dated 2022)

Key:
Assay in all cases: whole plant or invertebrate
Format in all cases: in vivo
[1] = test system: Plutella xylostella; settings: 500 ppm; 2nd-instar larvae, leaf immersion feeding
In short: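 Leaf immersion feeding test: 2nd-instar larvae (about 35 per vessel, 3 replicates) kept at 28° C. on 1.0 cm cabbage discs soaked 5 s in a 500 ppm solution with 0.05% Tween-80. Mortality after 24 h of exposure, calculated relative to live larvae in the Tween-80 control.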

[2] = test system: Spodoptera exigua; settings: 500 ppm; 2nd-instar larvae; leaf immersion feeding; 24 hours
In short: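 Leaf immersion feeding: second-instar larvae (about 35 per vessel, triplicate) kept at 28° C on discs treated with 500 ppm test solution in 0.05% Tween-80. Mortality at 24 h, calculated relative to surviving larvae in the solvent control.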

[3] = test system: Aphis craccivora; settings: 500 ppm; wingless adults; impregnation method; 24 hours
In short: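 Mortality scored 24 h after treatment as the reduction in live aphids versus a 0.05% Tween-80 control; three replicates, 23° C. Treatment was a 5 s immersion of wingless adults on bean sprouts in 500 ppm test solution containing 0.05% Tween-80, followed by air-drying.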

[4] = test system: Solenopsis invicta; settings: 100 ppm, water test tube poison-feeding
In short: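 Mortality (%) of Solenopsis invicta, computed against live counts in control tubes, was recorded 24 h and 72 h after treatment at 25 °C. Compound was offered by oral feeding in test tubes at 100 ppm, diluted from a 10 g/L DMSO stock into water with 5% honey and 0.05% Tween-80.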

SMILES	Plutella xylostella Mortality (%) 500 ppm [1]	Spodoptera exigua Mortality (%) 500 ppm [2]	Aphis craccivora Mortality (%) 500 ppm [3]	Solenopsis invicta Mortality (%) 100 ppm 24 h [4]	Solenopsis invicta Mortality (%) 100 ppm 72 h [4]
N#Cc1nn2c(c1[S+]([O-])C(F)(F)F)NC(Cc1ccccc1)(C(=O)C(F)(F)F)c1cc(C(F)(F)F)cnc1-2 (centres unmarked) [a-27]	100%	100%	100%	25%	100%
COC(=O)CC1(C(=O)C(F)(F)F)Nc2c([S+]([O-])C(F)(F)F)c(C#N)nn2-c2ncc(C(F)(F)F)cc21 (centres unmarked) [a-28]	100%	95%	100%	23%	99%
N#Cc1nn2c(c1[S+]([O-])C(F)(F)F)NC(CBr)(C(=O)C(F)(F)F)c1cc(C(F)(F)F)cnc1-2 (centres unmarked) [a-29]	100%	91%	100%	14%	96%
N#CCC1(C(=O)C(F)(F)F)Nc2c([S+]([O-])C(F)(F)F)c(C#N)nn2-c2ncc(C(F)(F)F)cc21 (centres unmarked) [a-30]	96%	90%	100%	20%	97%
CC(=O)C1(CC(F)(F)F)Nc2c([S+]([O-])C(F)(F)F)c(C#N)nn2-c2ncc(C(F)(F)F)cc21 (centres unmarked) [a-36]	100%	96%	100%	14%	91%
CC(=O)C1(CC(=O)C(F)(F)F)Nc2c([S+]([O-])C(F)(F)F)c(C#N)nn2-c2ncc(C(F)(F)F)cc21 (centres unmarked) [a-37]	100%	96%	100%	15%	99%
N#Cc1nn2c(c1[S+]([O-])C(F)(F)F)NC(Cl)(Cl)c1cc(C(F)(F)F)cnc1-2 (stereo not drawn) [a-44, 5,5-dichloro-7-trifluoromethyl-3-trifluoromethylsulfinyl-4,5-dihydropyrazole[1,5-α]quinazoline[3,2-e]pyridine-2-cyano]	100%	95%	100%	15%	95%
N#Cc1nn2c(c1[S+]([O-])C(F)(F)F)NC(Cl)(CBr)c1cc(C(F)(F)F)cnc1-2 (centres unmarked) [a-45]	100%	91%	100%	20%	90%
CC1(C)Nc2c([S+]([O-])C(F)(F)F)c(C#N)nn2-c2ncc(C(F)(F)F)cc21 (centres unmarked) [a-51]	91%	89%	100%	16%	95%
N#Cc1nn2c(c1[S+]([O-])C(F)(F)F)NC(C#N)(C#N)c1cc(C(F)(F)F)cnc1-2 (centres unmarked) [a-52]	100%	89%	91%	20%	89%
COC(=O)CC1(C#N)Nc2c([S+]([O-])C(F)(F)F)c(C#N)nn2-c2ncc(C(F)(F)F)cc21 (centres unmarked) [a-56]	100%	90%	100%	16%	93%
N#Cc1nn2c(c1[S+]([O-])C(F)(F)F)NC(C#N)(CC(=O)C(F)(F)F)c1cc(C(F)(F)F)cnc1-2 (centres unmarked) [a-57]	100%	100%	100%	24%	100%
N#CCC1(C(F)(F)F)Nc2c([S+]([O-])C(F)(F)F)c(C#N)nn2-c2ncc(C(F)(F)F)cc21 (centres unmarked) [a-59]	96%	91%	100%	28%	97%
COC(=O)CC1(C(F)(F)F)Nc2c([S+]([O-])C(F)(F)F)c(C#N)nn2-c2ncc(C(F)(F)F)cc21 (centres unmarked) [a-62]	100%	100%	100%	21%	99%
N#Cc1nn2c(c1[S+]([O-])C(F)(F)F)NC(CC(=O)C(F)(F)F)(C(F)(F)F)c1cc(C(F)(F)F)cnc1-2 (centres unmarked) [a-63]	100%	100%	100%	24%	100%
COC(=O)C1Nc2c([S+]([O-])C(F)(F)F)c(C#N)nn2-c2ncc(C(F)(F)F)cc21 (centres unmarked) [a-64]	100%	99%	100%	20%	99%
COC(=O)CC1Nc2c([S+]([O-])C(F)(F)F)c(C#N)nn2-c2ncc(C(F)(F)F)cc21 (centres unmarked) [a-65]	100%	100%	100%	26%	100%
N#Cc1nn2c(c1[S+]([O-])C(F)(F)F)NC(C(=O)C(F)(F)F)c1cc(C(F)(F)F)cnc1-2 (centres unmarked) [a-71]	100%	99%	100%	24%	100%
N#Cc1nn2c(c1[S+]([O-])C(F)(F)F)NC(C#N)c1cc(C(F)(F)F)cnc1-2 (centres unmarked) [a-72]	96%	89%	100%	20%	91%
N#Cc1nn2c(c1[S+]([O-])C(F)(F)F)NC(Cl)c1cc(C(F)(F)F)cnc1-2 (centres unmarked) [a-80]	91%	85%	100%	10%	100%
COC(=O)C1Nc2c([S+]([O-])C(F)(F)F)c(C(F)(F)F)nn2-c2ncc(C(F)(F)F)cc21 (centres unmarked) [a-87]	96%	100%	100%	20%	97%
COC(=O)CC1Nc2c([S+]([O-])C(F)(F)F)c(C(F)(F)F)nn2-c2ncc(C(F)(F)F)cc21 (centres unmarked) [a-88]	100%	100%	100%	34%	100%
